Source: paper PMC4577729, “7-(Pyrazol-4-yl)-3H-imidazo[4,5-b]pyridine-based derivatives for kinase inhibition: Co-crystallisation studies with Aurora-A reveal distinct differences in the orientation of the pyrazole N1-substituent” (Bioorganic & Medicinal Chemistry Letters, 2015)

How the values were obtained:
Assay in all cases: Kinase selectivity profiling
Type in all cases: biochemical
[1] = target: T1, Aurora A (Homo sapiens, UniProt O14965); conditions: 1 µM, assay duplicates
T1 sequence (O14965 1-403): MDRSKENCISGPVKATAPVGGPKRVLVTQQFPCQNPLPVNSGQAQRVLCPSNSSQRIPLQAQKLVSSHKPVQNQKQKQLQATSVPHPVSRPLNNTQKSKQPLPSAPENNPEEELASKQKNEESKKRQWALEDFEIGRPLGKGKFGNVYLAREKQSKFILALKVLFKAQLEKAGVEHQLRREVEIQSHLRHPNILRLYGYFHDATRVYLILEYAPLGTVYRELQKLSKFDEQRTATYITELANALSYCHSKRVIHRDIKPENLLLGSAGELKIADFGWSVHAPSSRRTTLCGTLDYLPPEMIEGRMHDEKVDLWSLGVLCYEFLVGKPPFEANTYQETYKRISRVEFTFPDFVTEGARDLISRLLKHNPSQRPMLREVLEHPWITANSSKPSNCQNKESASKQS
Method: (§1) [20] Kinase selectivity profiling for compounds 7a, 7d, 14d and 14g was carried out at the International Centre for Protein Kinase Profiling, Division of Signal Transduction Therapy, University of Dundee.
(§2) Table S1: Kinase selectivity profiling of compounds 7a and 7d in a 102-kinase panel screened at a concentration of 1 µM.
(§3) Table S2: Kinase selectivity profiling of compounds 14d and 14g in a 105-kinase panel screened at a concentration of 1 µM.

[2] = target: BRSK1 (Homo sapiens, UniProt Q8TDC3); conditions: 1 µM, assay duplicates
Method: as §1, §2, §3

[3] = target: BTK (Homo sapiens, UniProt Q06187); conditions: 1 µM, assay duplicates
Sequence of BTK (Q06187 whole entry): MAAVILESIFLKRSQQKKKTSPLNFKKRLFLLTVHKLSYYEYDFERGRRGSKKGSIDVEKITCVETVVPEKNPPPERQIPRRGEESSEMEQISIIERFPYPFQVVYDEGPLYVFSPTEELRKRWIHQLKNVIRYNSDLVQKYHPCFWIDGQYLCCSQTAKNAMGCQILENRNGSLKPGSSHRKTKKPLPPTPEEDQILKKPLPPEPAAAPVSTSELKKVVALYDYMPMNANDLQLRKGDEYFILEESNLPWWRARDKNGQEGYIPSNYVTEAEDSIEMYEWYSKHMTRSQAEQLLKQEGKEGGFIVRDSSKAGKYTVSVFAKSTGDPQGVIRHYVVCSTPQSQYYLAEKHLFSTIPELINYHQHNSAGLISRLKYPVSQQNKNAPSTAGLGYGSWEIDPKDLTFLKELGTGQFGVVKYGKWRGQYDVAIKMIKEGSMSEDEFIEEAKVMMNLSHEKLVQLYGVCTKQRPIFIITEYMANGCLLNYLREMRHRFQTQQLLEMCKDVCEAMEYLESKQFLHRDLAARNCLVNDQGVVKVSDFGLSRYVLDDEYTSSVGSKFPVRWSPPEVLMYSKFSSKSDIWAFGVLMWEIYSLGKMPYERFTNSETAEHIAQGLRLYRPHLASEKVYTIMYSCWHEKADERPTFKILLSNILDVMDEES
Method: as §1, §2, §3

[4] = target: CAMK1 (Homo sapiens, UniProt Q14012); conditions: 1 µM, assay duplicates
Method: as §1, §2, §3

[5] = target: CAMKKb (Homo sapiens, UniProt Q96RR4); conditions: 1 µM, assay duplicates
Method: as §1, §2, §3

[6] = target: CK2 (Homo sapiens, UniProt P68400); conditions: 1 µM, assay duplicates
Method: as §1, §2, §3

[7] = target: CSK (Homo sapiens, UniProt P41240); conditions: 1 µM, assay duplicates
Method: as §1, §2, §3

[8] = target: DYRK1A (Homo sapiens, UniProt Q13627); conditions: 1 µM, assay duplicates
Method: as §1, §2, §3

[9] = target: IR (Homo sapiens, UniProt P06213); conditions: 1 µM, assay duplicates
Method: as §1, §2, §3

[10] = target: IRAK4 (Homo sapiens, UniProt Q9NWZ3); conditions: 1 µM, assay duplicates
Method: as §1, §2, §3

[11] = target: MAPKAP-K3 (Homo sapiens, UniProt Q16644); conditions: 1 µM, assay duplicates
Method: as §1, §2, §3

[12] = target: MARK4 (Homo sapiens, UniProt Q96L34); conditions: 1 µM, assay duplicates
Method: as §1, §2, §3

[13] = target: MEKK1 (Homo sapiens, UniProt Q13233); conditions: 1 µM, assay duplicates
Method: as §1, §2, §3

[14] = target: MELK (Homo sapiens, UniProt Q14680); conditions: 1 µM, assay duplicates
Method: as §1, §2, §3

[15] = target: MKK1 (Homo sapiens, UniProt Q02750); conditions: 1 µM, assay duplicates
Method: as §1, §2, §3

[16] = target: MNK1 (Homo sapiens, UniProt Q9BUB5); conditions: 1 µM, assay duplicates
Sequence of MNK1 (Q9BUB5 whole entry): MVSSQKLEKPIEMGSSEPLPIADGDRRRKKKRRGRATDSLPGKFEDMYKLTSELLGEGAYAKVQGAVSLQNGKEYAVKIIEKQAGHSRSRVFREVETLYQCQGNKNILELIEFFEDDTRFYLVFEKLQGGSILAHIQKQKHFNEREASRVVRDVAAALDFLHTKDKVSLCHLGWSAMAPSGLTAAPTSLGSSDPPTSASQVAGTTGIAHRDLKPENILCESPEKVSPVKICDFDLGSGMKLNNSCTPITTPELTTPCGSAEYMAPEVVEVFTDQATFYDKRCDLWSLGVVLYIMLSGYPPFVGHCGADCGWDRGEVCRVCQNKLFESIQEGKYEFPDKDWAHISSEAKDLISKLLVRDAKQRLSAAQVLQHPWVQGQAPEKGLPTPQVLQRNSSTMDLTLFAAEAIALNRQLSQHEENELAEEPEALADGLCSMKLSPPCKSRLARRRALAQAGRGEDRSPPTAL
Method: as §1, §2, §3

[17] = target: MSK1 (Homo sapiens, UniProt O75582); conditions: 1 µM, assay duplicates
Sequence of MSK1 (O75582 whole entry): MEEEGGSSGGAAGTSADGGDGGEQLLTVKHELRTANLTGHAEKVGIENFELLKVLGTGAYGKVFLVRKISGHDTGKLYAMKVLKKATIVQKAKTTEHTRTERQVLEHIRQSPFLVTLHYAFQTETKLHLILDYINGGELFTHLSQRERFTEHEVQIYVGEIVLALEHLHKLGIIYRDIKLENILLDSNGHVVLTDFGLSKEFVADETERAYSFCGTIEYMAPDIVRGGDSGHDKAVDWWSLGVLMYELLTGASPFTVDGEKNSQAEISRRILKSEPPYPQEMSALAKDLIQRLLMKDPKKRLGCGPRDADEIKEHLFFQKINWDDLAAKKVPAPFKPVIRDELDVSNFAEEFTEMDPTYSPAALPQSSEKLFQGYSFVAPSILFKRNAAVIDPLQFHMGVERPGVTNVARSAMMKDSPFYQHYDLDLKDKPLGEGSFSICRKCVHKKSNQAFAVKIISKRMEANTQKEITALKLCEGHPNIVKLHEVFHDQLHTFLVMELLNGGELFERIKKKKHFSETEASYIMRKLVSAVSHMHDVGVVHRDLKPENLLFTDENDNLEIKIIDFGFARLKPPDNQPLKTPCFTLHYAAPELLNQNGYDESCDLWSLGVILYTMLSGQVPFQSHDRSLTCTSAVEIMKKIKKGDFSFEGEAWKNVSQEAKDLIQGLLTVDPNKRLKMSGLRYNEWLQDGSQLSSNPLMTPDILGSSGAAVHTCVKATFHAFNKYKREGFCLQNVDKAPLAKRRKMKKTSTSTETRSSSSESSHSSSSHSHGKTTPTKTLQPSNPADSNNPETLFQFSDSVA
Method: as §1, §2, §3

[18] = target: MST2 (Homo sapiens, UniProt Q13188); conditions: 1 µM, assay duplicates
Method: as §1, §2, §3

[19] = target: PAK5 (Homo sapiens, UniProt Q9P286); conditions: 1 µM, assay duplicates
Method: as §1, §2, §3

[20] = target: PAK6 (Homo sapiens, UniProt Q9NQU5); conditions: 1 µM, assay duplicates
Method: as §1, §2, §3

[21] = target: PDK1 (Homo sapiens, UniProt O15530); conditions: 1 µM, assay duplicates
Method: as §1, §2, §3

[22] = target: PIM1 (Homo sapiens, UniProt P11309); conditions: 1 µM, assay duplicates
Sequence of PIM1 (P11309 whole entry): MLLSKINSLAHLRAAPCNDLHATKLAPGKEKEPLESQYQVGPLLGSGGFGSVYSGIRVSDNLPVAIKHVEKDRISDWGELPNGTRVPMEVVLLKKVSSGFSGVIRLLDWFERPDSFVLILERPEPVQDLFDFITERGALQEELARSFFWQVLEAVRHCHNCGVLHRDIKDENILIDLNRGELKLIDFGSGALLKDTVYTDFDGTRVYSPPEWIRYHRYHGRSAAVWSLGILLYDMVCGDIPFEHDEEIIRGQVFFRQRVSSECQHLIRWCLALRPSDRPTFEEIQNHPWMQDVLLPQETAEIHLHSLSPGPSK
Method: as §1, §2, §3

[23] = target: PKA (Homo sapiens, UniProt P17612); conditions: 1 µM, assay duplicates
Method: as §1, §2, §3

[24] = target: PKBa (Homo sapiens, UniProt P31749); conditions: 1 µM, assay duplicates
Method: as §1, §2, §3

[25] = target: PKBb (Homo sapiens, UniProt P31751); conditions: 1 µM, assay duplicates
Method: as §1, §2, §3

[26] = target: RIPK2 (Homo sapiens, UniProt O43353); conditions: 1 µM, assay duplicates
Sequence of RIPK2 (O43353 whole entry): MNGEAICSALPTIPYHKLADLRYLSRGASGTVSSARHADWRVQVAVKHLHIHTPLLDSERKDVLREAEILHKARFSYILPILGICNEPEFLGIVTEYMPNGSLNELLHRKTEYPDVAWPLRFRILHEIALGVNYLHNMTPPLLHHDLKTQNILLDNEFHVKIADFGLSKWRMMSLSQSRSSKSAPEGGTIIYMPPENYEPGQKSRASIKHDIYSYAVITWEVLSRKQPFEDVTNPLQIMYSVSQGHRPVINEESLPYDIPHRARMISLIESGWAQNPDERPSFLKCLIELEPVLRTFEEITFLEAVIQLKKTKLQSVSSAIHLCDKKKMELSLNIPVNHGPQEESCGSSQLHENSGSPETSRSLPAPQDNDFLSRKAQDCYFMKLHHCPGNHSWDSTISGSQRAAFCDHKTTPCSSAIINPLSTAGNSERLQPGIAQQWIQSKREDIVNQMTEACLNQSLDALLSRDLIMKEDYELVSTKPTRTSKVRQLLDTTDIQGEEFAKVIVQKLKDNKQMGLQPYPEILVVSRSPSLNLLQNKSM
Method: as §1, §2, §3

[27] = target: ROCK 2 (Homo sapiens, UniProt O75116); conditions: 1 µM, assay duplicates
Method: as §1, §2, §3

[28] = target: RSK2 (Homo sapiens, UniProt P51812); conditions: 1 µM, assay duplicates
Method: as §1, §2, §3

[29] = target: SGK1 (Homo sapiens, UniProt O00141); conditions: 1 µM, assay duplicates
Method: as §1, §2, §3

[30] = target: SRPK1 (Homo sapiens, UniProt Q96SB4); conditions: 1 µM, assay duplicates
Method: as §1, §2, §3

[31] = target: SYK (Homo sapiens, UniProt P43405); conditions: 1 µM, assay duplicates
Method: as §1, §2, §3

[32] = target: SmMLCK (Homo sapiens, UniProt Q15746); conditions: 1 µM, assay duplicates
Method: as §1, §2, §3

[33] = target: TAK1 (Homo sapiens, UniProt O43318); conditions: 1 µM, assay duplicates
Sequence of TAK1 (O43318 1-303 limits assumed): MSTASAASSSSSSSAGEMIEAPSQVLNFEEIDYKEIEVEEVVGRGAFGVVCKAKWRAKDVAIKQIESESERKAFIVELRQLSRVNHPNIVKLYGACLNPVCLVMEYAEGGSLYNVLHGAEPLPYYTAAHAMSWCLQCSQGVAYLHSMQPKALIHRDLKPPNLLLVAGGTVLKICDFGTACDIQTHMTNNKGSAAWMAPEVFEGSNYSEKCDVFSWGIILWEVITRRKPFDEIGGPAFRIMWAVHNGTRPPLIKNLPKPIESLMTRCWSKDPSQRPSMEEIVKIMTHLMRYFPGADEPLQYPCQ
Method: as §1, §2, §3

[34] = target: TTK (Homo sapiens, UniProt P33981); conditions: 1 µM, assay duplicates
Method: as §1, §2, §3

[35] = target: TrkA (Homo sapiens, UniProt P04629); conditions: for TrkA inhibition: 1 μM; for TrkA % activity remaining: 1 µM, assay duplicates
Sequence of TrkA (P04629 33-796): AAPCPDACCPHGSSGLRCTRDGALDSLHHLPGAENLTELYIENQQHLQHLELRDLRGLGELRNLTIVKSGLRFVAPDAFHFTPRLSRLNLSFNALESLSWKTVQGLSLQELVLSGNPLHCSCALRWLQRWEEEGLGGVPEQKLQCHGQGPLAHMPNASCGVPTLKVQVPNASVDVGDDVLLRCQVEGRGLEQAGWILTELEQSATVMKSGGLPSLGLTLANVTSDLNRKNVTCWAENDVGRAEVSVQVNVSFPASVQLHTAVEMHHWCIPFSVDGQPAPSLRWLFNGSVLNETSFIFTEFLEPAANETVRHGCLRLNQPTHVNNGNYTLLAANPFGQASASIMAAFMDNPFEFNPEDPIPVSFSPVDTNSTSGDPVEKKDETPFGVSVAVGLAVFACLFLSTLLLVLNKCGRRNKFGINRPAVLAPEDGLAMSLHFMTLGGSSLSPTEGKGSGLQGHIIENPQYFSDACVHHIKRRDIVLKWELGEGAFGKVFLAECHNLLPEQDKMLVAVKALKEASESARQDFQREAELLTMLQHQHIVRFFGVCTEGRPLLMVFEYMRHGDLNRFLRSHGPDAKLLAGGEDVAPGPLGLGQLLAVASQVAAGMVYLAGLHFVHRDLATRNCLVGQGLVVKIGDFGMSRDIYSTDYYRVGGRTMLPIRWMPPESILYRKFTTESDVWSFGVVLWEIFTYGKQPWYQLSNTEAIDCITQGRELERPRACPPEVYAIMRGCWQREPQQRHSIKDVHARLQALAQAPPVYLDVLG
Method: as §1, §2, §3

[36] = target: YES1 (Homo sapiens, UniProt P07947); conditions: 1 µM, assay duplicates
Sequence of YES1 (P07947 whole entry): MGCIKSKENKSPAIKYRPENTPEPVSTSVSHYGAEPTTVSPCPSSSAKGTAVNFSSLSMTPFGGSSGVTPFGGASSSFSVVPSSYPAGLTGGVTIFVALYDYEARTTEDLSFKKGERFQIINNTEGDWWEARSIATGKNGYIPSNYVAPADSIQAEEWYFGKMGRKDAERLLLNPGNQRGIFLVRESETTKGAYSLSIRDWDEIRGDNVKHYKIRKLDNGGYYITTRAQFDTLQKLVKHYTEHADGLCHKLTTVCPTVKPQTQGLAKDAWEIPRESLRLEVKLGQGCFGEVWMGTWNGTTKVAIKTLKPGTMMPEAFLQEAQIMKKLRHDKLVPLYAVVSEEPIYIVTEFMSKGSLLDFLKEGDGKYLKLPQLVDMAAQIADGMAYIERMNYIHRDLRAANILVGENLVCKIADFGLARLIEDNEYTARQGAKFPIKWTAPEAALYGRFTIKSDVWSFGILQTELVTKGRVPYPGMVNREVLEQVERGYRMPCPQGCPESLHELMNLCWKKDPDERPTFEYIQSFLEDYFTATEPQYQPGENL
Method: as §1, §2, §3

[37] = target: p38d MAPK (Homo sapiens, UniProt O15264); conditions: 1 µM, assay duplicates
Sequence of p38d MAPK (O15264 whole entry): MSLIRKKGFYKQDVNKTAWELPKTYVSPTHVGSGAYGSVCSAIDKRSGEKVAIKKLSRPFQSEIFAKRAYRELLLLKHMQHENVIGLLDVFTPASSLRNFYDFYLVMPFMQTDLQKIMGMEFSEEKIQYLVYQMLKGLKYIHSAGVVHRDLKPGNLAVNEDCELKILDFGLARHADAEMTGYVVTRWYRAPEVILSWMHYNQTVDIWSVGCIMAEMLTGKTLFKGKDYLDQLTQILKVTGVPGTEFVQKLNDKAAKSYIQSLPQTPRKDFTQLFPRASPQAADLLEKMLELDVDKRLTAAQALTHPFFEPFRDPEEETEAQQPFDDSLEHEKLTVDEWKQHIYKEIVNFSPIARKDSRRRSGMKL
Method: as §1, §2, §3

SMILES | Aurora A % activity remaining [1] [%] | BRSK1 % activity remaining [2] [%] | BTK % activity remaining [3] [%] | CAMK1 % activity remaining [4] [%] | CAMKKb % activity remaining [5] [%] | CK2 % activity remaining [6] [%] | CSK % activity remaining [7] [%] | DYRK1A % activity remaining [8] [%] | IR % activity remaining [9] [%] | IRAK4 % activity remaining [10] [%] | MAPKAP-K3 % activity remaining [11] [%] | MARK4 % activity remaining [12] [%] | MEKK1 % activity remaining [13] [%] | MELK % activity remaining [14] [%] | MKK1 % activity remaining [15] [%] | MNK1 % activity remaining [16] [%] | MSK1 % activity remaining [17] [%] | MST2 % activity remaining [18] [%] | PAK5 % activity remaining [19] [%] | PAK6 % activity remaining [20] [%] | other results
Cc1nn(C)cc1-c1nc2c(-c3cnn(Cc4ccccc4)c3)c(Cl)cnc2[nH]1 [Compound 7a] | 1 | 36 | 46 | 87 | 19 | 62 | 59 | 3 | 3 | 28 | 69 | 37 | 74 | 19 | 28 | 55 | 62 | 60 | 36 | 42 | PDK1 % activity remaining [21]: 52%; PIM1 % activity remaining [22]: 71%; PKA % activity remaining [23]: 72%; PKBa % activity remaining [24]: 70%; PKBb % activity remaining [25]: 62%; RIPK2 % activity remaining [26]: 40%; ROCK 2 % activity remaining [27]: 36%; RSK2 % activity remaining [28]: 42%; SGK1 % activity remaining [29]: 56%; SRPK1 % activity remaining [30]: 73%; SYK % activity remaining [31]: 37%; SmMLCK % activity remaining [32]: 51%; TAK1 % activity remaining [33]: 6%; TTK % activity remaining [34]: 29%; TrkA inhibition [35]: greater than 80%; TrkA % activity remaining [35]: 6%; YES1 % activity remaining [36]: 12%; p38d MAPK % activity remaining [37]: 18%
Cc1cc(Cn2cc(-c3c(Cl)cnc4[nH]c(-c5cn(C)nc5C)nc34)cn2)no1 [Compound 14d] | 1 | 61 | 33 | 77 | 42 | 57 | 83 | 9 | 53 | 33 | 103 | 25 | 66 | 49 | 40 | 64 | 61 | 80 | 41 | 45 | PDK1 % activity remaining [21]: 49%; PIM1 % activity remaining [22]: 96%; PKA % activity remaining [23]: 63%; PKBa % activity remaining [24]: 99%; PKBb % activity remaining [25]: 94%; RIPK2 % activity remaining [26]: 49%; ROCK 2 % activity remaining [27]: 44%; RSK2 % activity remaining [28]: 20%; SGK1 % activity remaining [29]: 65%; SRPK1 % activity remaining [30]: 31%; SYK % activity remaining [31]: 49%; SmMLCK % activity remaining [32]: 43%; TAK1 % activity remaining [33]: 18%; TTK % activity remaining [34]: 42%; TrkA inhibition [35]: ≥ 80%; TrkA % activity remaining [35]: 15%; YES1 % activity remaining [36]: 18%; p38d MAPK % activity remaining [37]: 41%
